US7892755B2, “Screening method” (Takeda Pharmaceutical Company Limited, priority 2004, dated 2011)

How the values were obtained:
Type in all cases: cell-based
control CHO-K1 cells = assay: Changes in intracellular calcium levels on FLIPR, control CHO-K1 cells with only expression vector pAKKO-111H
Procedure: (§1) The CHO-K1 cell line (purchased from ATCC) was incubated in HAM F-12 medium (Invitrogen) supplemented with 10% fetal calf serum, unless otherwise indicated. On the day before transfection, the cells were inoculated at 4.5×10^5/10 cm^2 and incubated at 37° C. for 15 hours or more in a CO2 incubator adjusted to 5% CO2 concentration. Using Lipofectamine reagent (Invitrogen), transfection was performed according to modifications of the procedure attached to the reagent. When a 6-well plate was used as the incubator, the transfection was performed as follows. Two tubes each having a 1.5 ml volume were prepared and 100 μl each of Opti-MEM medium (Invitrogen) was dispensed in each tube. Next, 1 μg of the GPR35 expression vector obtained in REFERENCE EXAMPLE 1 and 0.5 μg of Gα15 expression vector (Guthrie cDNA Resource Center) were incorporated into one tube and in another tube, 6 μl of Lipofectamine reagent was charged, which were then mixed together. The mixture was settled for 20 minutes at room temperature. To the solution, 800 μl of Opti-MEM medium was added and the resulting solution mixture for transfection was added to the CHO-K1 cells, which had been previously washed with Opti-MEM medium. The cells were then incubated in a CO2 incubator for 6 hours. After the incubation, the cells were rinsed with PBS (Invitrogen), then detached by 0.05% trypsin-EDTA solution (Invitrogen) and recovered by centrifugal operation. The cells obtained were counted and diluted to 5×10^4 cells per 100 μl of the medium. The dilution was dispensed to a black walled 96-well plate (Costar) at 100 μl per well, followed by incubation overnight in a CO2 incubator. Various test samples were added to the CHO-K1 cells, in which the receptor was transiently expressed, by the transfection procedure described above, whereby changes in intracellular calcium levels were assayed on a FLIPR (Molecular Device).
(§2) To assay the changes in intracellular calcium levels on FLIPR, the following pretreatment was made. First, an assay buffer was prepared to add fluorescence dye Fluo-3AM (DOJIN) to the cells, or to wash the cells immediately before the FLIPR assay. A solution was prepared by adding 20 ml of 1M HEPES (pH 7.4) (DOJIN) to 1000 ml of HBSS (Invitrogen) (hereinafter HBSS/HEPES solution). To the solution, there was added 10 ml of a solution obtained by dissolving 710 mg of Probenecid (Sigma) in 5 ml of 1N NaOH and further adding 5 ml of HBSS/HEPES solution thereto and mixing them. The resulting solution was used as an assay buffer. Next, 50 μg of Fluo-3AM was dissolved in 21 μl of DMSO (DOJIN), and an equal volume of 20% pluronic acid (Molecular Probes) was added to the solution. After mixing them, the mixture was added to 10.6 ml of an assay buffer supplemented with 105 μl of fetal calf serum to give a fluorescence dye solution. After the medium for the transfected CHO-K1 cells was removed, the fluorescence dye solution was immediately dispensed at 100 μl each per well and incubation was carried out in a CO2 incubator for an hour to take up the fluorescence dye into the cells. The incubated cells were washed with the assay buffer described above and set on FLIPR. Test samples to be added to the receptor-expressed CHO-K1 cells were prepared using the assay buffer and simultaneously set on FLIPR.
After the pretreatment described above was made, changes in intracellular calcium levels by the addition of various test samples were assayed on FLIPR. […]

GPR35 [1] = target: T1, GPR35 (Homo sapiens, UniProt Q9HC97, S294R); assay: Changes in intracellular calcium levels on FLIPR, CHO-K1 cells transiently co-expressing GPR35 and Gα15; design: The resulting fragment (ca. 1 kb) was introduced into vector pAKKO-111; expressed in transfected cells; host or cells: CHO-K1 (ATCC), transient transfection; conditions: Fluo-3AM, 0.3-10 μM shown for DNQX and ellagic acid (FIG. 1, 2)
Procedure: as §1, §2
After the pretreatment described above was made, changes in intracellular calcium levels by the addition of various test samples were assayed on FLIPR.

mouse GPR35 = target: T2, mouse GPR35 (Mus musculus, UniProt Q9ES90, D300Y/S286F); assay: Reactivity on FLIPR, CHO-K1 cells transfected with mouse GPR35 expression vector
T2 construct: the digestion product was inserted into plasmid vector pAKKO-111H; expressed in transfected cells; host or cells: CHO-K1 cells
Procedure: The CHO-K1 cell line (purchased from ATCC) was incubated in HAM F-12 medium (Invitrogen) supplemented with 10% fetal calf serum, unless otherwise indicated. On the day before transfection, the cells were inoculated at 4.5×10^5/10 cm^2 and incubated at 37° C. for 15 hours or more in a CO2 incubator adjusted to 5% CO2 concentration. Using Lipofectamine reagent (Invitrogen), transfection was performed according to modifications of the procedure attached to the reagent. When a 6-well plate was used as the incubator, the transfection was performed as follows. Two tubes each having a 1.5 ml volume were prepared and 100 μl each of Opti-MEM medium (Invitrogen) was dispensed in each tube. […] The cells obtained were counted and diluted to 5×10^4 cells per 100 μl of the medium. […]
To assay the changes in intracellular calcium levels on FLIPR, the following pretreatment was made. First, an assay buffer was prepared to add fluorescence dye Fluo-3AM (DOJIN) to the cells, or to wash the cells immediately before the FLIPR assay. […] After mixing them, the mixture was added to 10.6 ml of an assay buffer supplemented with 105 μl of fetal calf serum to give a fluorescence dye solution. […]

GPR35 [2] = target: T1, GPR35; assay: Changes in intracellular calcium levels on FLIPR, CHO cell line stably co-expressing human GPR35 and Gα16; design: expressed in transfected cells
Procedure: The Gα16-stably expressed cell line (Gα16/CHO cell line) as a host cell was prepared by transfecting the Gα16 expression vector (Guthrie cDNA Resource Center) into CHO cells in a conventional manner and incubating at 37° C. under 5% CO2 in αMEM medium (containing nucleic acid; Invitrogen) supplemented with 10% fetal calf serum (Invitrogen), 50 units/ml penicillin/50 ug/ml streptomycin (CAMBREX) and 1 mg/ml geneticin (Invitrogen). The cells that were incubated for 2 days in αMEM medium (containing nucleic acid) supplemented only with 10% fetal calf serum charged in a 75 cm^2 flask were used for the transfection. The transfection was carried out using Lipofectamine reagent (Invitrogen) by a modification of the protocol attached to the reagent. First, 2 centrifuge tubes each having a 15 ml volume were prepared and 600 μl each of Opti-MEM medium (Invitrogen) was dispensed in each tube. Next, 4.8 μg of the expression vector was charged in one tube and in another tube 36 μl of Lipofectamine reagent was charged, which were mixed together. The mixture was settled for 20 minutes at room temperature. […] The cells obtained were counted and diluted with αMEM medium (containing no nucleic acid; Invitrogen) supplemented only with 10% dialyzed fetal calf serum to have 0.3, 1.5 and 7.5 cells per 100 μl of the medium. […]

T1 sequence (Q9HC97 whole entry S294R, the tested form may be a part): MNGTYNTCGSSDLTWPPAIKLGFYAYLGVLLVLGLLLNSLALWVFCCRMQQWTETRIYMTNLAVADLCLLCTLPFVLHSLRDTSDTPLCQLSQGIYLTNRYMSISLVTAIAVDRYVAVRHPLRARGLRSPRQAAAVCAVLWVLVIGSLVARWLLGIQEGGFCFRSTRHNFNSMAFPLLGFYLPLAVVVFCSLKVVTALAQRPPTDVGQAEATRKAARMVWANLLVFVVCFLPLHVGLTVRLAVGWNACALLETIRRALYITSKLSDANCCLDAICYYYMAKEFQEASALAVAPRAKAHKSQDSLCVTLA
T2 sequence (Q9ES90 whole entry S286F/D300Y): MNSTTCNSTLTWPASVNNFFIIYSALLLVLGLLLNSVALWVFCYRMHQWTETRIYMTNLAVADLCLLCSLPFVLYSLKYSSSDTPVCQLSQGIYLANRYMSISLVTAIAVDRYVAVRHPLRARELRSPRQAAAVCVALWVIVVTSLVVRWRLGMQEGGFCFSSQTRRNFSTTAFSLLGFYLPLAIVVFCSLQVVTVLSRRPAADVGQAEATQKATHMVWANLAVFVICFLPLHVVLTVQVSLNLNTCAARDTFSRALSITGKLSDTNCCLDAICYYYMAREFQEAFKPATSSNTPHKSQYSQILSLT

Compound: O=C1N=c2cc([N+](=O)[O-])cc([N+](=O)[O-])c2=NC1=O [5,7-dinitroquinoxaline-2,3-dione]
- response (increased intracellular calcium levels) in control cells (control CHO-K1 cells): not observed
- response (increased intracellular calcium levels) (GPR35 [1]): dose-dependently responded (increased intracellular calcium levels)

Compound: N#Cc1cc2c(cc1[N+](=O)[O-])=NC(=O)C(=O)N=2 [6-cyano-7-nitroquinoxaline-2,3-dione]
- response (increased intracellular calcium levels) in control cells (control CHO-K1 cells): not observed
- response (increased intracellular calcium levels) (GPR35 [1]): dose-dependently responded (increased intracellular calcium levels)

Compound: O=c1oc2c(O)c(O)cc3c(=O)oc4c(O)c(O)cc1c4c23 [ellagic acid]
- response (increased intracellular calcium levels) in control cells (control CHO-K1 cells): not observed
- reactivity of mouse GPR35 (FLIPR) (mouse GPR35): responsive
- intracellular calcium levels (GPR35 [2]): increased
- response (increased intracellular calcium levels) (GPR35 [1]): dose-dependently responded (increased intracellular calcium levels)
